Reference: PubChem BioAssay AID248 (DTP/NCI, 2004)
Several values for one entry are separate records, joined by “and”; a condition that tells them apart may be missing. Identical values can stand only once. Toxic doses and inconclusive results are not listed. Cut-off read from the data, not from the text of the source: active = T/C of 150% or more; inactive = T/C below 125%.

Tested on: L1210 leukemia ip in BDF1 mice, survival T/C
Assay: NCI In Vivo Anticancer Drug Screen. Data for tumor model L1210 Leukemia (intraperitoneal) in B6D2F1 (BDF1) mice
Conditions: endpoint: mean survival time, higher = longer survival
Method in brief: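 Survival endpoint. Drug-treated group vs vehicle group, expressed as T divided by C. Tumor passaged by transplantation.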

[1] = dose: 50.0 mg/kg/injection, schedule: Q01DX001 (ip), vehicle: carboxymethylcellulose (CMC)
[2] = dose: 100.0 mg/kg/injection, schedule: Q04DX002 (ip), vehicle: saline with Tween-80
[3] = dose: 200.0 mg/kg/injection, schedule: Q04DX002 (ip), vehicle: saline with Tween-80
[4] = dose: 400.0 mg/kg/injection, schedule: Q04DX002 (ip), vehicle: saline with Tween-80
[5] = dose: 12.5 mg/kg/injection, schedule: Q04DX003 (ip), vehicle: saline
[6] = dose: 25.0 mg/kg/injection, schedule: Q04DX003 (ip), vehicle: saline
[7] = dose: 100.0 mg/kg/injection, schedule: Q01DX001 (ip), vehicle: saline
[8] = dose: 100.0 mg/kg/injection, schedule: Q04DX002 (ip), vehicle: saline
[9] = dose: 200.0 mg/kg/injection, schedule: Q01DX001 (ip), vehicle: saline
[10] = dose: 200.0 mg/kg/injection, schedule: Q04DX002 (ip), vehicle: saline
[11] = dose: 400.0 mg/kg/injection, schedule: Q01DX001 (ip), vehicle: saline
[12] = dose: 100.0 mg/kg/injection, schedule: Q04DX003 (ip), vehicle: Klucel (hydroxypropylcellulose) (HPC)
[13] = dose: 200.0 mg/kg/injection, schedule: Q04DX003 (ip), vehicle: Klucel (hydroxypropylcellulose) (HPC)
[14] = dose: 400.0 mg/kg/injection, schedule: Q04DX003 (ip), vehicle: Klucel (hydroxypropylcellulose) (HPC)
[15] = dose: 25.0 mg/kg/injection, schedule: Q01DX009 (ip), vehicle: saline
[16] = dose: 50.0 mg/kg/injection, schedule: Q04DX003 (ip), vehicle: saline

Measured: T/C

CC(C)(C)C1CCC(N)CC1 (stereo unspecified)
inactive: dose: 12.5 mg/kg/injection, schedule: Q01DX001 (ip), vehicle: carboxymethylcellulose (CMC) 104 % of control | dose: 25.0 mg/kg/injection, schedule: Q01DX001 (ip), vehicle: carboxymethylcellulose (CMC) 98 % of control | [1] 104 % of control

CC(C)CCCC(C)C1CCC2C3CC=C4CC(S)CCC4(C)C3CCC12C (stereo unspecified)
inactive: dose: 60.0 mg/kg/injection, schedule: Q04DX003 (sc), vehicle: steriod suspending solution 100 % of control | dose: 120.0 mg/kg/injection, schedule: Q04DX003 (sc), vehicle: steriod suspending solution 109 % of control | dose: 240.0 mg/kg/injection, schedule: Q04DX003 (sc), vehicle: steriod suspending solution 105 % of control

NC(=S)N/N=C\c1nccc2ccsc12
inactive: [2] 113 % of control | [3] 92 % of control | [4] 103 % of control

O=[N+]([O-])/C=C/c1ccccc1O
inactive: dose: 6.25 mg/kg/injection, schedule: Q04DX003 (ip), vehicle: saline 92 % of control | [5] 101 % of control | [6] 92 % of control

Cc1cccc(OCCOC(=O)Nc2cccc(C(F)(F)F)c2)c1
inactive: [7] 104 % of control | dose: 100.0 mg/kg/injection, schedule: Q01DX009 (ip), vehicle: saline 100 % of control and 87 % of control | [8] 100 % of control and 101 % of control | dose: 100.0 mg/kg/injection, schedule: Q04DX003 (ip), vehicle: saline 101 % of control | [9] 106 % of control | dose: 200.0 mg/kg/injection, schedule: Q01DX009 (ip), vehicle: saline 92 % of control and 87 % of control | [10] 100 % of control and 105 % of control | dose: 200.0 mg/kg/injection, schedule: Q04DX003 (ip), vehicle: saline 106 % of control | [11] 109 % of control | dose: 400.0 mg/kg/injection, schedule: Q01DX009 (ip), vehicle: saline 94 % of control | dose: 400.0 mg/kg/injection, schedule: Q04DX002 (ip), vehicle: saline 92 % of control and 97 % of control | dose: 400.0 mg/kg/injection, schedule: Q04DX003 (ip), vehicle: saline 103 % of control

COc1ccc(CN(CCN(C)C)c2ccccn2)cc1
inactive: dose: 12.5 mg/kg/injection, schedule: Q01DX009 (ip), vehicle: Klucel (hydroxypropylcellulose) (HPC) 97 % of control | dose: 12.5 mg/kg/injection, schedule: Q04DX003 (ip), vehicle: Klucel (hydroxypropylcellulose) (HPC) 94 % of control | dose: 25.0 mg/kg/injection, schedule: Q01DX009 (ip), vehicle: Klucel (hydroxypropylcellulose) (HPC) 94 % of control | dose: 25.0 mg/kg/injection, schedule: Q04DX003 (ip), vehicle: Klucel (hydroxypropylcellulose) (HPC) 93 % of control | dose: 50.0 mg/kg/injection, schedule: Q01DX009 (ip), vehicle: Klucel (hydroxypropylcellulose) (HPC) 93 % of control | dose: 50.0 mg/kg/injection, schedule: Q04DX003 (ip), vehicle: Klucel (hydroxypropylcellulose) (HPC) 93 % of control and 94 % of control

CC(=O)OC12CCC(O1)C1C(=O)OC(=O)C12 (stereo unspecified)
inactive: [12] 101 % of control | [13] 97 % of control | [14] 97 % of control

O=C(Nc1ccc(C2=NCCN2)c(O)c1)c1cccc(C(=O)Nc2ccc(C3=NCCN3)c(O)c2)c1
inactive: dose: 10.0 mg/kg/injection, schedule: Q01DX Z (ip), vehicle: carboxymethylcellulose (CMC) 101 % of control | dose: 20.0 mg/kg/injection, schedule: Q01DX Z (ip), vehicle: carboxymethylcellulose (CMC) 109 % of control | dose: 40.0 mg/kg/injection, schedule: Q01DX Z (ip), vehicle: carboxymethylcellulose (CMC) 101 % of control | dose: 80.0 mg/kg/injection, schedule: Q01DX Z (ip), vehicle: carboxymethylcellulose (CMC) 101 % of control

O=S(=O)(O)O.[N-]=C(N)/N=C(\[NH-])N.[N-]=C(N)/N=C(\[NH-])N.[N-]=C(N)NC(=[N-])N.[Rh+3]
inactive: [5] 91 % of control | [15] 118 % of control | [6] 109 % of control | dose: 50.0 mg/kg/injection, schedule: Q01DX009 (ip), vehicle: saline 98 % of control | [16] 96 % of control

NC(=O)C(F)(F)c1ccccc1
inactive: [7] 105 % of control | [9] 103 % of control | [11] 102 % of control

OC12CC(C(F)(F)F)(C(F)(F)F)OC1(O)CC(C(F)(F)F)(C(F)(F)F)O2 (stereo unspecified)
inactive: dose: 100.0 mg/kg/injection, schedule: Q04DX003 (ip), vehicle: saline with Tween-80 94 % of control | dose: 200.0 mg/kg/injection, schedule: Q04DX003 (ip), vehicle: saline with Tween-80 89 % of control

COC(F)(F)C(Cl)Cl
inactive: [7] 95 % of control | [9] 101 % of control | [11] 95 % of control

CN1CCC=C(C(=O)O)C1
inactive: [1] 101 % of control | dose: 100.0 mg/kg/injection, schedule: Q01DX001 (ip), vehicle: carboxymethylcellulose (CMC) 110 % of control | dose: 200.0 mg/kg/injection, schedule: Q01DX001 (ip), vehicle: carboxymethylcellulose (CMC) 104 % of control

CCCCC[P+](c1ccccc1)(c1ccccc1)c1ccccc1
inactive: dose: 12.5 mg/kg/injection, schedule: Q04DX002 (ip), vehicle: Klucel (hydroxypropylcellulose) (HPC) 109 % of control | dose: 25.0 mg/kg/injection, schedule: Q04DX002 (ip), vehicle: Klucel (hydroxypropylcellulose) (HPC) 106 % of control | dose: 50.0 mg/kg/injection, schedule: Q04DX002 (ip), vehicle: Klucel (hydroxypropylcellulose) (HPC) 109 % of control

CCSC1=C(SCC)C(=O)C(SCC)=C(SCC)C1=O
inactive: dose: 3.1 mg/kg/injection, schedule: Q01DX009 (ip), vehicle: saline with Tween-80 110 % of control | dose: 6.25 mg/kg/injection, schedule: Q01DX009 (ip), vehicle: saline with Tween-80 105 % of control | dose: 12.5 mg/kg/injection, schedule: Q01DX009 (ip), vehicle: saline with Tween-80 105 % of control | dose: 25.0 mg/kg/injection, schedule: Q01DX009 (ip), vehicle: saline with Tween-80 91 % of control | dose: 50.0 mg/kg/injection, schedule: Q01DX009 (ip), vehicle: saline with Tween-80 103 % of control

COc1ccc(OC)c(NC(=O)Nc2ccc(I)cc2)c1
inactive: dose: 100.0 mg/kg/injection, schedule: Q04DX002 (ip), vehicle: Klucel (hydroxypropylcellulose) (HPC) 96 % of control | dose: 200.0 mg/kg/injection, schedule: Q04DX002 (ip), vehicle: Klucel (hydroxypropylcellulose) (HPC) 96 % of control | dose: 400.0 mg/kg/injection, schedule: Q04DX002 (ip), vehicle: Klucel (hydroxypropylcellulose) (HPC) 107 % of control

CCCCCCCCCCCCCC[S+](C)C
inactive: dose: 12.5 mg/kg/injection, schedule: Q01DX009 (ip), vehicle: saline 108 % of control | [5] 101 % of control | [15] 123 % of control | [6] 90 % of control | [16] 96 % of control

CC(Cl)[N+](=O)[O-] (stereo unspecified)
inactive: [2] 94 % of control | [3] 94 % of control | [4] 98 % of control

Cc1cnc(NCCCC(N)C(=O)O)nc1 (stereo unspecified)
inactive: [8] 95 % of control | [10] 95 % of control

CS(=O)(=O)OCCNCCOS(C)(=O)=O
inactive: dose: 15.0 mg/kg/injection, schedule: Q01DX001 (ip), vehicle: saline 104 % of control | dose: 30.0 mg/kg/injection, schedule: Q01DX001 (ip), vehicle: saline 113 % of control | dose: 60.0 mg/kg/injection, schedule: Q01DX001 (ip), vehicle: saline 106 % of control | dose: 75.0 mg/kg/injection, schedule: Q01DX001 (ip), vehicle: saline 93 % of control

N#CC1CC(c2ccccc2)Nc2ccccc2N1 (stereo unspecified)
inactive: [12] 94 % of control | [13] 98 % of control | [14] 96 % of control
